Results: patent publication US20260347338A1, “PYRIMIDINE/PYRIDINE DERIVATIVES OR SALTS THEREOF AND PHARMACEUTICAL COMPOSITIONS COMPRISING THE SAME” (YUHAN CORPORATION, priority 2023, published 2026)
Structures can show the parent of a compound that is named as a salt.

Target: T1, human recombinant HPK1 (Homo sapiens, UniProt Q92918)
T1 construct: purchased BPS Bioscience
Assay: Inhibitory activity against human recombinant HPK1 (TR-FRET)
Format: biochemical
Settings: ULight-p70S6K peptide, ATP at Km, room temperature, 1 hour, 0.32 to 1000 nM compound
Method in brief: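 Recombinant human HPK1 with ULight-p70S6K peptide and ATP at Km, 1 h at room temperature in HEPES pH 7.4 buffer with Mg2+, Mn2+, EGTA, DTT; compounds 0.32–1000 nM final. EDTA stop, Eu-anti-phosphopeptide TR-FRET read (665 nm); IC50 from % inhibition versus DMSO, binned A–D at 10, 50, 100 nM.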

T1 sequence (Q92918 whole entry): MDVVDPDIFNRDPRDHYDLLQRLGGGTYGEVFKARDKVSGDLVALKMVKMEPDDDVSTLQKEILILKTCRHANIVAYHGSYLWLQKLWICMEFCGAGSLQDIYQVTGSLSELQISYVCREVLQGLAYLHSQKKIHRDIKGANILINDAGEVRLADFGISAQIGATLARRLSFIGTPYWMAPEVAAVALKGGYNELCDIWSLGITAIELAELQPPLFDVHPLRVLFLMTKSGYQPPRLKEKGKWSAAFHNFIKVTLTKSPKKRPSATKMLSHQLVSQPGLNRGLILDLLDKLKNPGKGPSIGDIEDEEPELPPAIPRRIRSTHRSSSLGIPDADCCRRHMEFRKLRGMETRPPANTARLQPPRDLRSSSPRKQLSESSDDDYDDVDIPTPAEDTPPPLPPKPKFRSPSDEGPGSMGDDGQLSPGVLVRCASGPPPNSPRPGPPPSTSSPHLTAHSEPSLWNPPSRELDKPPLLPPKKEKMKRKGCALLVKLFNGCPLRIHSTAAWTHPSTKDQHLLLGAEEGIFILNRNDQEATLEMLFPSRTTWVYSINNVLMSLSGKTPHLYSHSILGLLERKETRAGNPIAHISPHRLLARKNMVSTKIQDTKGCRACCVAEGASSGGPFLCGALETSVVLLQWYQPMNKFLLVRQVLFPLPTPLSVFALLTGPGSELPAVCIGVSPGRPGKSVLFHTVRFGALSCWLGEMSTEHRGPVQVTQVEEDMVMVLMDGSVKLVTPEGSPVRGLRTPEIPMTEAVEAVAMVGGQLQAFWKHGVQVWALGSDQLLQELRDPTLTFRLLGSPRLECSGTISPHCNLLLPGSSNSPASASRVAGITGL

Structure (SMILES)	IC50 [nM]
COc1cccc(F)c1-c1nccc(Nc2cc(N3CC[C@@H](N)[C@H](O)C3)c(-c3cnn(C(F)F)c3)cn2)n1 [Example 295, (3R,4R)-4-amino-1-(5-(1-(difluoromethyl)-1H-pyrazol-4-yl)-2-((2-(2-fluoro-6-methoxyphenyl)pyrimidin-4-yl)amino)pyridin-4-yl)piperidin-3-ol]	≤ 10
COc1cccc(F)c1-c1nccc(Nc2cc(N3CCCC(C(N)=O)C3)c(-c3cnn(C4CCOCC4)c3)cn2)n1 (centres unmarked) [Example 34, 1-(2-((2-(2-fluoro-6-methoxyphenyl)pyrimidin-4-yl)amino)-5-(1-(tetrahydro-2H-pyran-4-yl)-1H-pyrazol-4-yl)pyridin-4-yl)piperidin-3-carboxamide]	10 to 50
COc1cccc(F)c1-c1nccc(Nc2cc(N3CCC[C@H](N)C3)c(-c3cnn(CCCN(C)C)c3)cn2)n1 [Example 236, (S)-N-(4-(3-aminopiperidin-1-yl)-5-(1-(3-(dimethylamino)propyl)-1H-pyrazol-4-yl)pyridin-2-yl)-2-(2-fluoro-6-methoxyphenyl)pyrimidin-4-amine hydrochloride]	≤ 10
COc1cccc(F)c1-c1nc(Nc2cc(N3CCC[C@H](O)C3)c(-c3cnn(CC(F)(F)F)c3)cn2)ccc1C(N)=O [Example 143, 2-(2-fluoro-6-methoxyphenyl)-6-((4-((S)-3-hydroxypiperidin-1-yl)-5-(1-(2,2,2-trifluoroethyl)-1H-pyrazol-4-yl)pyridin-2-yl)amino)nicotinamide]	≤ 10
COc1cccc(F)c1-c1nc(Nc2cc(N3CCC[C@H](O)C3)c(-c3cnn(C4CCOCC4)c3)cn2)ccc1[N+](=O)[O-] [Example 41, (3S)-1-(2-((6-(2-fluoro-6-methoxyphenyl)-5-nitropyridin-2-yl)amino)-5-(1-(tetrahydro-2H-pyran-4-yl)-1H-pyrazol-4-yl)pyridin-4-yl)piperidin-3-ol]	≤ 10
COc1cccc(F)c1-c1nc(Nc2cc(N3CCC[C@H](O)C3)c(-c3cnn(C4CCOCC4)c3)cn2)ccc1C [Example 58, (3S)-1-(2-((6-(2-fluoro-6-methoxyphenyl)-5-methylpyridin-2-yl)amino)-5-(1-(tetrahydro-2H-pyran-4-yl)-1H-pyrazol-4-yl)pyridin-4-yl)piperidin-3-ol]	> 100
N[C@H]1CCCN(c2cc(Nc3ccnc(-c4cc5nccnc5cc4F)n3)ncc2C#Cc2cnn(C(F)(F)F)c2)C1 [Example 115, (S)-N-(4-(3-aminopiperidin-1-yl)-5-((1-(trifluoromethyl)-1H-pyrazol-4-yl)ethynyl)pyridin-2-yl)-2-(7-fluoroquinoxalin-6-yl)pyrimidin-4-amine hydrochloride]	≤ 10
COC(=O)c1ccc(Nc2cc(N3CCC[C@H](O)C3)c(-c3cnn(C4CCOCC4)c3)cn2)nc1-c1c(F)cccc1OC [Example 60, methyl 2-(2-fluoro-6-methoxyphenyl)-6-((4-((S)-3-hydroxypiperidin-1-yl)-5-(1-(tetrahydro-2H-pyran-4-yl)-1H-pyrazol-4-yl)pyridin-2-yl)amino)nicotinate]	≤ 10
COc1cccc(F)c1-c1nc(Nc2cc(N3CCC[C@H](O)C3)c(C#Cc3cnn(CC(F)F)c3)cn2)ccc1[N+](=O)[O-] [Example 221, (3S)-1-(5-((1-(2,2-difluoroethyl)-1H-pyrazol-4-yl)ethynyl)-2-((6-(2-fluoro-6-methoxyphenyl)-5-nitropyridin-2-yl)amino)pyridin-4-yl)piperidin-3-ol]	≤ 10
COc1cccc(F)c1-c1nccc(Nc2cc(N3CCC[C@H](O)C3)c(-c3cnn(C(F)F)c3)cn2)n1 [Example 72, (S)-1-(5-(1-(difluoromethyl)-1H-pyrazol-4-yl)-2-((2-(2-fluoro-6-methoxyphenyl)pyrimidin-4-yl)amino)pyridin-4-yl)piperidin-3-ol]	≤ 10
COc1ccc(F)c(F)c1-c1nccc(Nc2cc(N3CCC[C@H](O)C3)c(-c3cnn(C4CCOCC4)c3)cn2)n1 [Example 24, (S)-1-(2-((2-(2,3-difluoro-6-methoxyphenyl)pyrimidin-4-yl)amino)-5-(1-(tetrahydro-2H-pyran-4-yl)-1H-pyrazol-4-yl)pyridin-4-yl)piperidin-3-ol]	≤ 10
CN[C@H]1CCCN(c2cc(Nc3ccnc(-c4c(F)cccc4OC)n3)ncc2-c2cnn(C(F)F)c2)C1 [Example 122, (S)-N-(5-(1-(difluoromethyl)-1H-pyrazol-4-yl)-4-(3-(methylamino)piperidin-1-yl)pyridin-2-yl)-2-(2-fluoro-6-methoxyphenyl)pyrimidin-4-amine hydrochloride]	≤ 10
COc1cccc(F)c1-c1nc(Nc2cc(N3CCC[C@H](O)C3)c(C(N)=O)cn2)ccc1N [Example 193, 6-((5-amino-6-(2-fluoro-6-methoxyphenyl)pyridin-2-yl)amino)-4-((S)-3-hydroxypiperidin-1-yl)nicotinamide]	≤ 10
COc1cccc(F)c1-c1nccc(Nc2cc(N3CCC[C@H](N)C3)c(-c3cnn(CC4CNC4)c3)cn2)n1 [Example 237, (S)-N-(4-(3-aminopiperidin-1-yl)-5-(1-(azetidin-3-ylmethyl)-1H-pyrazol-4-yl)pyridin-2-yl)-2-(2-fluoro-6-methoxyphenyl)pyrimidin-4-amine hydrochloride]	≤ 10
COc1cccc(F)c1-c1nc(Nc2cc(N3CCC[C@H](O)C3)c(-c3cnn(CC(F)(F)F)c3)cn2)ccc1N [Example 180, (3S)-1-(2-((5-amino-6-(2-fluoro-6-methoxyphenyl)pyridin-2-yl)amino)-5-(1-(2,2,2-trifluoroethyl)-1H-pyrazol-4-yl)pyridin-4-yl)piperidin-3-ol]	≤ 10
COc1cccc(F)c1-c1nc(Nc2cc(N3CCC[C@H](N)C3)c(-c3cnn(CC(F)F)c3)cn2)ccc1N [Example 169, N^2-(4-((S)-3-aminopiperidin-1-yl)-5-(1-(2,2-difluoroethyl)-1H-pyrazol-4-yl)pyridin-2-yl)-6-(2-fluoro-6-methoxyphenyl)pyridin-2,5-diamine hydrochloride]	≤ 10
COc1cc(F)cc(F)c1-c1nc(Nc2cc(N3CC[C@@H](F)[C@H](N)C3)c(-c3cnn(C(C)C)c3)cn2)ccc1C#N [Example 340, 6-((4-((3R,4R)-3-amino-4-fluoropiperidin-1-yl)-5-(1-isopropyl-1H-pyrazol-4-yl)pyridin-2-yl)amino)-2-(2,4-difluoro-6-methoxyphenyl)nicotinonitrile hydrochloride]	≤ 10
COc1cccc(F)c1-c1nccc(Nc2cc(N3CCC[C@H](O)C3)c(-c3cnn(C4CCOCC4)c3)cn2)n1 [Example 7, (S)-1-(2-((2-(2-fluoro-6-methoxyphenyl)pyrimidin-4-yl)amino)-5-(1-(tetrahydro-2H-pyran-4-yl)-1H-pyrazol-4-yl)pyridin-4-yl)piperidin-3-ol]	≤ 10
COc1cccc(F)c1-c1nccc(Nc2cc(N3CCC(C(C)O)CC3)c(-c3cnn(C4CCOCC4)c3)cn2)n1 (centres unmarked) [Example 66, 1-(1-(2-((2-(2-fluoro-6-methoxyphenyl)pyrimidin-4-yl)amino)-5-(1-(tetrahydro-2H-pyran-4-yl)-1H-pyrazol-4-yl)pyridin-4-yl)piperidin-4-yl)ethan-1-ol]	≤ 10
COc1cccc(F)c1-c1nccc(Nc2cc(N3CCC4(CCNC4)CC3)c(-c3cnn(C4CCOCC4)c3)cn2)n1 [Example 92, N-(4-(2,8-diazaspiro[4.5]decan-8-yl)-5-(1-(tetrahydro-2H-pyran-4-yl)-1H-pyrazol-4-yl)pyridin-2-yl)-2-(2-fluoro-6-methoxyphenyl)pyrimidin-4-amine hydrochloride]	≤ 10
